Data on 25 compounds can be found in patent publication US11878972B2, “Treatment of neurological disorders” (TORQUR AG, priority 2016, dated 2024).

In one series the test system is pPKB S473 in A2058 cells. The series is described as follows: In-cell Western blot, pPKB S473. Type of series: cell-based. As to conditions: treated for 1 hour, normalized to α-tubulin.
The test system of series [1] is pS6 S235/S236 in A2058 cells. Description: In-cell Western blot, pS6 S235/S236. Type of series: cell-based. Particulars: treated for 1 hour, normalized to α-tubulin.
Method: (§1) Cells are fixed with 4% paraformaldehyde for 30 minutes at room temperature, washed 2 times with 1% BSA in PBS, permeabilized with 0.1% Triton X-100 in PBS/1% BSA for 30 minutes at room temperature and blocked with 5% goat serum in PBS/1% BSA/0.1% Triton X-100 for 30 minutes at room temperature. […] Cells are washed 3 times 5 minutes with PBS/1% BSA/0.1% triton and plate scanned with the Odyssey Infrared Scanning system using both 700 and 800 nm channels. […] To correct for background staining in the data analysis wells are treated only with secondary antibodies.
(§2) For data analysis the mean background signal from channel 700 nm and 800 nm are subtracted from each signal in channel 700 nm and 800 nm, respectively.
(§3) IC50 values of each compound are determined by plotting the normalized pPBK S473 and pS6 S235/S236 signals, respectively, versus the compound concentrations (in logarithmic scale) and then by fitting a sigmoidal dose-response curve with variable slope to the data using GraphPad™ Prism.
In series [2] the test system is female NMRI mice, nonepileptic (sham-SE) and epileptic (pilo-SE). Description: Maximal electroshock seizure threshold test (MEST). The class given is in vivo, mouse. Particulars: for CC50 / threshold increase: Phenobarbital; for increase of the seizure threshold in MEST: 5 mg/kg rapamycin; for increase of the threshold: rapamycin after intraperitoneal injections. The procedure: A total of 166 adult female NMRI mice were used obtained from Charles River (Sulzfeld, Germany) at a weight range of 21-25 g (mice). Animals were kept under the following conditions: Housing: Animals were housed in groups of max. 8 mice under controlled conditions (temperature: 22±1° C.; humidity: 50% 60%/), under a 12-h light-dark cycle (lights on at 6:00 a.m.). Feeding: Standard laboratory chow (Altromin 1324 standard diet, Altromin Spezialfutter GmbH, Lage, Germany) was provided ad libitum. Drinking water: Tap water was provided ad libitum.
The MEST determines a population seizure threshold in groups of ˜20 animals and not the threshold for an individual animal. In the present study, the MEST was determined by a staircase procedure as previously described. A stimulator (BMT Medizintechnik, Berlin, Germany) that delivered a constant current (adjustable from 1-200 mA regardless of the impedance of the animal) with sinusoidal pulses (50/sec) for 0.2 sec was used.
Current administration was performed via bilateral transcorneal stimulation (using copper electrodes). Before transcorneal stimulation, a drop of tetracaine solution (2%) was administered to the eyes of the mouse for local anesthesia. Two minutes later, the mouse was restrained by hand to press the copper electrodes on both corneas while the stimulus was applied by stepping on a foot pedal switch connected with the stimulator. Electrodes were covered with soft leather and soaked with saline before each current application. […] The first stimulation was started with a current near to the control threshold.
3 (HCl): 40/100 mg in 10 ml (Suspension; 5% PEG 400 and 2% Tween 80, HPBCD (10%6)) • Cpd. 8 (HCl): 12.5/25 mg in 10 ml (5% PEG 400 and 2% Tween 80, HPBCD (10%))
Statistical analysis were calculated using Student's t-test. All tests were used two-sided; a P<0.05 was considered significant.
We performed no special tests for the determination of adverse effects. Mice were observed about 30 min after injection in their home cages for obvious sedation or reduction of wellbeing. Five minutes before electrical stimulation mice were again observed in their home cages and two minutes before stimulation during handling procedure for treatment with local anaesthesia. Every obvious variation from normal behavior was noted. Only phenobarbital induced noticeable sedation which lasted for more than 60 min. All other test drugs (including vehicle solutions) were tolerated without any obvious adverse effects.
On the technique in general: In the maximal electroshock model the usual endpoint is tonic extension of the hind limbs.

The mark [3] stands for this setting: 50 mg/kg Levetiracetam i.p., pretreatment 1 h.

Method for pPKB S473 in A2058 cells: as §1, §2, §3

With `C[C@H]1COCCN1c1nc(-c2cnc(N)nc2C(F)F)nc(N2CCOCC2)n1` [Compound 9, (S)-4-(difluoromethyl)-5-(4-(3-methylmorpholino)-6-morpholino-1,3,5-triazin-2-yl)pyrimidin-2-amine], the IC50 (as a rule, the midpoint of a concentration-inhibition curve) was found to be 0.035 µM in the series on pPKB S473 in A2058 cells (Homo sapiens) and 0.072 µM in series [1] (Homo sapiens).
On to `Nc1cc(C(F)F)c(-c2nc(N3CCNCC3)nc(N3CCOCC3)n2)cn1` [Compound 12, 4-(difluoromethyl)-5-(4-morpholino-6-(piperazin-1-yl)-1,3,5-triazin-2-yl)pyridin-2-amine], for which the IC50 in the series with pPKB S473 in A2058 cells stood at 0.219 µM; in series [1] it was 0.407 µM.
In the same order, the values of `Nc1ncc(-c2nc(N3CCNCC3)nc(N3CCOCC3)n2)c(C(F)F)n1` [Compound 13, 4-(difluoromethyl)-5-(4-morpholino-6-(piperazin-1-yl)-1,3,5-triazin-2-yl)pyrimidin-2-amine] are 0.037 µM and 0.12 µM.
Consider `Nc1cc(C(F)F)c(-c2cc(N3CCOCC3)nc(N3CCOCC3)n2)cn1` [Compound 16, 4-(difluoromethyl)-5-(2,6-dimorpholinopyrimidin-4-yl)pyridin-2-amine], for which the IC50 came out at 0.207 µM in the series with pPKB S473 in A2058 cells (Homo sapiens) and 0.184 µM in series [1] (Homo sapiens, A2058, 1 h).
In series [1] (Homo sapiens, A2058, 1 h), `Nc1ncc(-c2cc(N3CCOCC3)nc(N3CCOCC3)n2)c(C(F)F)n1` [Compound 17, 4′-(difluoromethyl)-2,6-dimorpholino-[4,5′-bipyrimidin]-2′-amine] returned an IC50 of 0.149 µM.
Consider `Nc1cc(C(F)F)c(-c2nc(N3CCOCC3)cc(N3CCOCC3)n2)cn1` [Compound 18, 4-(difluoromethyl)-5-(4,6-dimorpholinopyrimidin-2-yl)pyridin-2-amine], for which the IC50 with pPKB S473 in A2058 cells (Homo sapiens) came out at 0.243 µM; in series [1] (Homo sapiens, A2058, 1 h), 0.256 µM.
In the case of `Nc1cc(C(F)F)c(-c2nc(N3CCOCC3)nc(N3CCSCC3)n2)cn1` [Compound 20, 4-(difluoromethyl)-5-(4-morpholino-6-thiomorpholino-1,3,5-triazin-2-Yl)pyridin-2-amine], the IC50 in the series on pPKB S473 in A2058 cells (Homo sapiens, A2058, 1 h) was 0.146 µM; in series [1] (Homo sapiens, A2058, 1 h), 0.25 µM.
Consider `Nc1ncc(-c2nc(N3CCOCC3)nc(N3CCSCC3)n2)c(C(F)F)n1` [Compound 21, 4-(difluoromethyl)-5-(4-morpholino-6-thiomorpholino-1,3,5-triazin-2-yl)pyrimidin-2-amine], for which the IC50 worked out at 0.057 µM with pPKB S473 in A2058 cells (Homo sapiens, A2058, 1 h) and 0.216 µM in series [1] (Homo sapiens, A2058, 1 h).
Consider `C[C@H]1COCCN1c1cc(-c2cnc(N)cc2C(F)F)nc(N2CCOCC2)n1` [Compound 27, (S)-4-(difluoromethyl)-5-(6-(3-methylmorpholino)-2-morpholinopyrimidin-4-yl)pyridin-2-amine], for which the IC50 with pPKB S473 in A2058 cells (Homo sapiens) came out at 0.614 µM; in series [1] (Homo sapiens), 0.766 µM.
Regarding `C[C@H]1COCCN1c1nc(-c2cnc(N)cc2C(F)F)cc(N2CCOCC2)n1` [Compound 31, (S)-4-(difluoromethyl)-5-(2-(3-methylmorpholino)-6-morpholinopyrimidin-4-yl)pyridin-2-amine], the IC50 in the series on pPKB S473 in A2058 cells (Homo sapiens) amounted to 0.146 µM; in series [1] (Homo sapiens) it was 0.124 µM.
In the same order, the values of `C[C@H]1COCCN1c1nc(-c2cnc(N)nc2C(F)F)cc(N2CCOCC2)n1` [Compound 32, (S)-4′-(difluoromethyl)-2-(3-methylmorpholino)-6-morpholino-[4,5′-bipyrimidin]-2′-amine] are 0.1 µM and 0.387 µM.
With `CC1(C)COCCN1c1nc(-c2cnc(N)cc2C(F)F)nc(N2CCOCC2(C)C)n1` [Compound 39, 5-[4,6-bis(3,3-dimethylmorpholin-4-yl)-1,3,5-triazin-2-yl]-4-(difluoromethyl)pyridin-2-amine], the IC50 with pPKB S473 in A2058 cells (Homo sapiens, A2058, 1 h) worked out at 0.106 µM; in series [1] (Homo sapiens, A2058, 1 h), 0.047 µM.
On to `C[C@@H]1COC[C@H](C)N1c1nc(-c2cnc(N)cc2C(F)F)nc(N2[C@H](C)COC[C@@H]2C)n1` [Compound 40, 5-[4,6-bis[(3R,5S)-3,5-dimethylmorpholin-4-yl]-1,3,5-triazin-2-yl]-4-(difluoromethyl)pyridin-2-amine], for which the concentration for half-maximal inhibition (IC50) came to 0.252 µM in the series on pPKB S473 in A2058 cells (Homo sapiens) and 0.16 µM in series [1] (Homo sapiens).
In the same order, the values of `C[C@@H]1COCCN1c1nc(-c2cnc(N)cc2C(F)F)nc(N2CCOC[C@H]2C)n1` [Compound 41, 5-[4,6-bis[(3R)-3-methylmorpholin-4-yl]-1,3,5-triazin-2-yl]-4-(difluoromethyl)pyridin-2-amine] are 0.436 µM and 0.261 µM.
Turning to `CC1(C)COCCN1c1nc(-c2cnc(N)cc2C(F)F)nc(N2CCOCC2)n1` [Compound 42, 4-(difluoromethyl)-5-[4-(3,3-dimethylmorpholin-4-yl)-6-morpholino-1,3,5-triazin-2-yl]pyridin-2-amine], the IC50 in the series on pPKB S473 in A2058 cells (Homo sapiens, A2058, 1 h) was determined as 0.054 µM; in series [1] (Homo sapiens, A2058, 1 h), 0.045 µM.
Turning to `COC[C@@H]1COCCN1c1nc(-c2cnc(N)cc2C(F)F)nc(N2CCOC[C@H]2C)n1` [Compound 46, 4-(difluoromethyl)-5-[4-[(3R)-3-(methoxymethyl)morpholin-4-yl]-6-[(3R)-3-methylmorpholin-4-yl]-1,3,5-triazin-2-yl]pyridin-2-amine], the IC50 in the series on pPKB S473 in A2058 cells (Homo sapiens, A2058, 1 h) worked out at 0.956 µM; in series [1] (Homo sapiens, A2058, 1 h) it was 0.426 µM.
For `C[C@@H]1COCCN1c1nc(-c2cnc(N)cc2C(F)F)nc(N2C3COCC2C3)n1` [Compound 50, 4-(difluoromethyl)-5-[4-[(3R)-3-methylmorpholin-4-yl]-6-(3-oxa-6-azabicyclo[3.1.1]heptan-6-yl)-1,3,5-triazin-2-yl]pyridin-2-amine], the IC50 with pPKB S473 in A2058 cells (Homo sapiens, A2058, 1 h) was found to be 1.56 µM; in series [1] (Homo sapiens, A2058, 1 h), 0.407 µM.
The matching figures for `CC[C@@H]1COCCN1c1nc(-c2cnc(N)cc2C(F)F)nc(N2CCOC[C@H]2CC)n1` [Compound 54, 5-[4,6-bis[(3R)-3-ethylmorpholin-4-yl]-1,3,5-triazin-2-yl]-4-(difluoromethyl)pyridin-2-amine]: 0.354 µM and 0.209 µM.
The matching figures for `Nc1cc(C(F)F)c(-c2nc(N3CCOCC34CCC4)nc(N3CCOCC34CCC4)n2)cn1` [Compound 55, 5-[4,6-bis(8-oxa-5-azaspiro[3.5]nonan-5-yl)-1,3,5-triazin-2-yl]-4-(difluoromethyl)pyridin-2-amine]: 0.942 µM and 0.526 µM.
The matching figures for `C[C@@H]1COCCN1c1nc(-c2cnc(N)cc2C(F)F)nc(N2[C@H](C)COC[C@H]2C)n1` [Compound 78, 4-(difluoromethyl)-5-[4-[(3R,5R)-3,5-dimethylmorpholin-4-yl]-6-[(3R)-3-methylmorpholin-4-yl]-1,3,5-triazin-2-yl]pyridin-2-amine]: 0.506 µM and 0.392 µM.
In series [1] (Homo sapiens, A2058, 1 h), `CC[C@H]1COCCN1c1nc(-c2cnc(N)cc2C(F)F)nc(N2CCOC[C@H]2C)n1` [Compound 85, 4-(difluoromethyl)-5-[4-[(3S)-3-ethylmorpholin-4-yl]-6-[(3R)-3-methylmorpholin-4-yl]-1,3,5-triazin-2-yl]pyridin-2-amine] had an IC50 of 0.241 µM.
In turn, `CC[C@@H]1COCCN1c1nc(-c2cnc(N)cc2C(F)F)nc(N2CCOC[C@H]2C)n1` [Compound 86, 4-(difluoromethyl)-5-[4-[(3R)-3-ethylmorpholin-4-yl]-6-[(3R)-3-methylmorpholin-4-yl]-1,3,5-triazin-2-yl]pyridin-2-amine] returned an IC50 in the series on pPKB S473 in A2058 cells (Homo sapiens, A2058, 1 h) of 0.231 µM.
In the case of `CC[C@@H](C(N)=O)N1CCCC1=O` [Levetiracetam, reference compound], in series [2] (setting [3]), the “Threshold difference between nonepileptic and epileptic” value is −4%; the “Threshold difference between vehicle and drug threshold, nonepileptic” value worked out at 21%.
In series [2] (epileptic mice), `CCC1(c2ccccc2)C(=O)NC(=O)NC1=O` [Phenobarbital, reference compound] yielded a CC50 of 26.56 mA and a threshold increase of 66%. Moreover, in series [2] (nonepileptic mice), the CC50 stood at 25.7 mA and the threshold increase is given as 69%. For the same compound, the “duration of noticeable sedation” value in series [2] (mice observed in home cages after injection) is “more than 60 min”.
With `CO[C@H]1C[C@@H]2CC[C@@H](C)[C@@](O)(O2)C(=O)C(=O)N2CCCC[C@H]2C(=O)O[C@H]([C@H](C)C[C@@H]2CC[C@@H](O)[C@H](OC)C2)CC(=O)[C@H](C)/C=C(\C)[C@@H](O)[C@@H](OC)C(=O)[C@H](C)C[C@H](C)/C=C/C=C/C=C/1C` [rapamycin, reference compound], the “increase of the seizure threshold in MEST” value is 5% in series [2] (epileptic mice) and 13% in series [2] (nonepileptic mice). Also, the “increase of the threshold” value in series [2] (epileptic mice) is “no effect”; in series [2] (nonepileptic mice), 20%.
